Source: US20090087497A1, “Compositions and methods for treating symptoms of aging” (Burnham Institute for Medical Research, priority 2007, published 2009)

Columns and labels:
[1] = test system: mice; conditions: 2 mg/ml in the drinking water, chronic; cited from earlier work
[2] = test system: flies; experiment: Development of flies under doxycycline; assay type: in vivo, Drosophila
[3] = test system: Drosophila melanogaster; experiment: Screen of individual and combined compounds on age-related physiological parameters (maximal heart rate and exercise capacity); assay type: in vivo; conditions: separate study of the five best combinations with larger number of flies; FIG. 3
Source text: The first dataset of combined interventions. We performed an initial screen of compounds for their effects on cardiac aging in Drosophila, selected for their very general effects on multiple biological functions, known low toxicity and, for some, known effects on aging in other models (Wood et al., Nature 430:686-689, 2004).
After screening 44 compounds individually at multiple doses (a total of 300 groups, each composed of 10-20 flies), we chose two doses each of four compounds for more comprehensive measurements of their combined effects on three age-related phenotypes: maximal heart rate and exercise capacity declines with age and survival. […]

| effect on development in flies [2] | SMILES | effect on body weight [1] | plasma levels [1] | functional improvement confirmed in additional tests (climbing velocity and maximal heart rate) [3] |
| --- | --- | --- | --- | --- |
| slows development | C[C@H]1c2cccc(O)c2C(=O)C2=C(O)[C@]3(O)C(=O)C(C(N)=O)=C(O)[C@@H](N(C)C)[C@@H]3[C@@H](O)[C@@H]21 [doxycycline] | no effect | close to saturation | – |
| – | Oc1ccc(C=Cc2cc(O)cc(O)c2)cc1 [resveratrol] | – | – | not |
